The text below walks through data of patent US8680133B2, “Alkyl indole-3-carbinol-derived antitumor agents” (The Ohio State University Research Foundation, priority 2009, dated 2014).

The structures appear in SMILES notation.

By GI50 is commonly meant the concentration giving 50% growth inhibition. The low end stands for greater sensitivity of the cells, the high end for lower sensitivity of the cells.

In one assay the test system is PC-3 xenograft tumor. The assay can be described thus: PC-3 xenograft tumor growth in nude mice, 450 ppm in the diet. In kind it is in vivo. Particulars: 450 ppm in AIN-76A rodent diet, vs control diet, P<0.05. As to the method:
FIG. 3 provides a graph showing the in vivo efficacy of dietary OSU-A9M at 450 ppm in a rodent diet in suppressing PC-3 xenograft tumor growth in nude mice.
Given the increased potency of OSU-A9M compared to the other lead derivatives, an experimental diet was formulated. An AIN-76A rodent diet (American Institute of Nutrition; including primarily casein, sucrose, and corn starch) containing 450 ppm OSU-A9M was made to deliver approximately 50 mg/kg of drug per day to each mouse estimated by food consumption and body weight measurements.

For the next assay, the system named is BT-549. The assay can be described thus: NCI60 screening, Breast Cancer, BT-549. Type of assay: cell-based, human.

As for `Cc1ccc2c(c1)c(CO)cn2S(=O)(=O)c1ccc(Cl)c([N+](=O)[O-])c1` [OSU-A9M, [1-(4-chloro-3-nitro-benzenesulfonyl)-5-methyl-1H-indol-3-yl]-methanol], in the assay with PC-3 xenograft tumor, the “Suppression of the growth of PC-3 xenograft tumors” value was found to be 59.6%. This compound showed a TGI with BT-549 of 3.13E−6. It took 1670 nM to inhibit growth in the assay with BT-549 (Homo sapiens) by half (GI50). The CC50 in the assay on BT-549 (Homo sapiens, read-out: LC50 (the source's name)) was found to be 5.89 µM. The “Percent Growth” value in the assay with BT-549 (Log10 Concentration −4.0) is given as −92%; with BT-549 (Log10 Concentration −5.0) it was −92%; in the assay with BT-549 (Log10 Concentration −6.0), 91%; in the assay with BT-549 (Log10 Concentration −7.0), 87%; with BT-549 (Log10 Concentration −8.0) it was 85%.
